Measurements reported in ChEMBL document CHEMBL1201862, “PubChem BioAssay data set” (2004).
Calls of active or inactive are those of the source.

Assays:
[1] = target: T1, Carboxy-terminal domain RNA polymerase II polypeptide A small phosphatase 1 (Homo sapiens, UniProt Q9GZU7); test: inhibitors of CTDSP1, concentration-response testing, biochemical assay, absorbance-based, actives from ultra-high-throughput screening (AID 540297); type: functional
T1 sequence (Q9GZU7 whole entry): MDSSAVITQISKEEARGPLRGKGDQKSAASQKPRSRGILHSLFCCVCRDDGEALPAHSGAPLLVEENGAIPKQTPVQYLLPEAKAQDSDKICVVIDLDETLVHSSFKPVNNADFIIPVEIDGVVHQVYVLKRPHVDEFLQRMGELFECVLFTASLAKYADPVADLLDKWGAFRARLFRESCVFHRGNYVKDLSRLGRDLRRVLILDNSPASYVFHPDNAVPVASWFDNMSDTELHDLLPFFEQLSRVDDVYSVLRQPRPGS

[2] = THP-1 cell cytotoxicity, dose response, cytotoxicity control for non-replicating M. tuberculosis project (AID 489025); type: functional
[3] = HepG2 cell cytotoxicity, dose response, cytotoxicity control for non-replicating M. tuberculosis project (AID 489018); type: functional; conditions: Mycobacterium tuberculosis
[4] = Vero E6 cell cytotoxicity, dose response, cytotoxicity control for non-replicating M. tuberculosis project, secondary assay (AID 492998); type: functional, VeroE6; conditions: Vero C1008
cells = type: functional
Nonstructural protein 1 = Nonstructural protein 1 (Influenza A virus, UniProt Q194T2); type: functional, Influenza A virus (A/California/07/2009(H1N1))
[5] = microbe, parasite or virus in culture; type: functional; conditions: Mycobacterium tuberculosis
[6] = growth suppression of PTEN-null colon cells, dose response, cell-based, HCT116 PTEN knockout (AID 1047); type: functional;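 also: HCT116 colon tumor cells with PTEN knocked out; cells exposed to compound for 60 hours before readout; potency for loss of cell viability measured by luminescence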
[7] = growth suppression of beta-catenin-knockout colon cells, dose response, cell-based, HCT116, human colon tumor (AID 1045); type: functional;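 also: HCT116 colon tumor cells with beta catenin knocked out; cells exposed to compound for 60 hours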
INS1 = test: beta cell apoptosis inhibitors, cytokine rescue, dose response, luminescence, retest (AID 449756); type: functional, cell-based; conditions: Rattus norvegicus;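 also: cell death triggered by IL-1 beta plus TNF-alpha plus IFN-gamma mixture; protective hits raise ATP signal compared with cytokine alone wells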
[8] = target: Glucose-6-phosphate 1-dehydrogenase (Homo sapiens, UniProt P11413); test: human G6PD enzyme inhibitors, dose response, selectivity assay for P. falciparum G6PD inhibitor project, biochemical, fluorescence (AID 504792); type: functional
[9] = target: T2, Apoptotic protease-activating factor 1 (Homo sapiens, UniProt O14727); type: functional
T2 sequence (O14727 whole entry): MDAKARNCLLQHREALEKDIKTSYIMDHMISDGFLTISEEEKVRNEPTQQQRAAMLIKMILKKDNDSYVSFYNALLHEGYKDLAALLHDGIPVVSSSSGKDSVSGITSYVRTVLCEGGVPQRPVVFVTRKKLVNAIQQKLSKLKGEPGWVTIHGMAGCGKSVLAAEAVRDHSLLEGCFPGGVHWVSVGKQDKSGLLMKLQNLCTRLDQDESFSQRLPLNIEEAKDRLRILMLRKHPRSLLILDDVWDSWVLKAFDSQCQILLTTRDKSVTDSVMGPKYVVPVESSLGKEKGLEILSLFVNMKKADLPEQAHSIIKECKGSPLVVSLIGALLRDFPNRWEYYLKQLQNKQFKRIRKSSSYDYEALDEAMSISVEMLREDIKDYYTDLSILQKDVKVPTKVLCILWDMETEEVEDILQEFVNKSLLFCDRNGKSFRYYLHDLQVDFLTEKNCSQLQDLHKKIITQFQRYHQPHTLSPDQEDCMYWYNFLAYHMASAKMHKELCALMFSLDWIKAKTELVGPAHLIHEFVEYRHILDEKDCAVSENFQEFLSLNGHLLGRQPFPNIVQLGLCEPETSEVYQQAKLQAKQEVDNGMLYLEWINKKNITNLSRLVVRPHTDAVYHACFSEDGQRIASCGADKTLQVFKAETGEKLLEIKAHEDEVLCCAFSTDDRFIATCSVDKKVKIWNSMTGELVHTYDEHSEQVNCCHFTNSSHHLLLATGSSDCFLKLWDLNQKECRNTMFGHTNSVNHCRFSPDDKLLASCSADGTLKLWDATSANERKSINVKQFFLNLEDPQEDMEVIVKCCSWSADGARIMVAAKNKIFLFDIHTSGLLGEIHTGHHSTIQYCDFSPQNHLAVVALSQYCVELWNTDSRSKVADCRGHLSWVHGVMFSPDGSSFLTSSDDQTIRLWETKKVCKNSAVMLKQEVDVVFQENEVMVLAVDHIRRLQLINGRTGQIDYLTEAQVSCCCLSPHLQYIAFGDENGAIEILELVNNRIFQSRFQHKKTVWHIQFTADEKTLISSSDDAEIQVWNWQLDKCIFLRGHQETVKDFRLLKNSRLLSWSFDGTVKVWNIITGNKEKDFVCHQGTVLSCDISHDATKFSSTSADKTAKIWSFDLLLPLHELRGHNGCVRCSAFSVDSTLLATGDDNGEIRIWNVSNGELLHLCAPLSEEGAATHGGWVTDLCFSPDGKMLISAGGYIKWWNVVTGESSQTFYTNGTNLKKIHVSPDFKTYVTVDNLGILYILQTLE

[10] = system: Streptococcus sp. 'group A'; test: growth inhibition of control SK(-) GAS strain, dose response, counter-screen for streptokinase expression inhibitor project, luminescence, kanamycin, BacTiterGlo, confirmation (AID 1900); type: functional, organism-based; conditions: Streptococcus sp. 'group A'
Streptokinase A = target: T3, Streptokinase A (Streptococcus pyogenes serotype M1, UniProt P10520); test: S. pyogenes streptokinase expression inhibitors, potency, dose response, plasminogen activation absorbance, OD405 (AID 1914); type: functional, Streptococcus pyogenes M1 GAS;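 also: secreted streptokinase activity via plasminogen activation per viability signal from cell pellet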
T3 sequence (P10520 whole entry): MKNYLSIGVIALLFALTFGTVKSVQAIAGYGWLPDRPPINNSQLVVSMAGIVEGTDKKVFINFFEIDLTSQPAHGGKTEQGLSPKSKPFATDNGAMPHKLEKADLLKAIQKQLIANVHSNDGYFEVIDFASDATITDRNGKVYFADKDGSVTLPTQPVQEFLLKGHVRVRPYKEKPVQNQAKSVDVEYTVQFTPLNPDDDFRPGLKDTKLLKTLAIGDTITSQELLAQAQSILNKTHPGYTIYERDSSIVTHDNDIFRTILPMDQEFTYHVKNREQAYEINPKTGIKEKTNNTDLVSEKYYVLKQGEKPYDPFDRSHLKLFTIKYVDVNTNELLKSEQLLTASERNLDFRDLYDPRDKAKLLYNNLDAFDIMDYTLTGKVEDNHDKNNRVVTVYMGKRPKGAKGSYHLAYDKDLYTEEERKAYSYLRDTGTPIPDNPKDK

Streptococcus = test: Group A Streptococcus viability loss, dose response, counter-screen for streptokinase expression inhibitor project, luminescence, BacTiterGlo (AID 1915); type: functional, organism-based; conditions: Streptococcus;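 also: potency for reduction of bacterial viability or growth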

Chain of Glucose-6-phosphate 1-dehydrogenase (P11413 whole entry): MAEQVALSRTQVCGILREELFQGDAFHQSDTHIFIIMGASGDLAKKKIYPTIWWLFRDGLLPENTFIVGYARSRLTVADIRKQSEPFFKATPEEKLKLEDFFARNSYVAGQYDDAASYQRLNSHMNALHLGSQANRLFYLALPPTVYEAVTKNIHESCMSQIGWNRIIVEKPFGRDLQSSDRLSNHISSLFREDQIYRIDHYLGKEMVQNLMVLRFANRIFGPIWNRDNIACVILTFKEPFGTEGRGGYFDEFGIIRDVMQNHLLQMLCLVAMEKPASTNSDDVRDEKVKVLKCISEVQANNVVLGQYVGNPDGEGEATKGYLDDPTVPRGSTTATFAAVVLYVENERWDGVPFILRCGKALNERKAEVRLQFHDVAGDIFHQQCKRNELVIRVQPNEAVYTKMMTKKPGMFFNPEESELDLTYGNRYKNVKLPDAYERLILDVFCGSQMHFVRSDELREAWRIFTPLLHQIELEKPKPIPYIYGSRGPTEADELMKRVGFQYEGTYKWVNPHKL
Chain of Nonstructural protein 1 (Q194T2 whole entry): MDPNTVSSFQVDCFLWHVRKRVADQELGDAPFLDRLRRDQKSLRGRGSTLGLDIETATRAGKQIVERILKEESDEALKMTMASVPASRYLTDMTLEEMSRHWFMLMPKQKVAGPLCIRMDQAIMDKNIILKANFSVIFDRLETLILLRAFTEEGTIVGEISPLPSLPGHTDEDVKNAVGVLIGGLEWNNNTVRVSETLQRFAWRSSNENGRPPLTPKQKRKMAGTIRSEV

O=C(Cn1cnc2scc(-c3cccc([N+](=O)[O-])c3)c2c1=O)NCc1ccco1
IC50 [1]: 3.15 µM (active)

Cc1cc(NCc2ccccn2)n2nc(C)c(-c3ccccc3)c2n1
CC50 [2]: 6.19 µM (active)
CC50 [3]: 3.11 µM (active)
CC50 [4]: 13.6 µM (active)
IC50 (cells): 3.2 µM (active)

CC1=[N+](C)c2c(ccc3cccnc23)C1(C)C
IC50 (Nonstructural protein 1): > 100 µM (active)

CC(=O)Oc1c(C)cc(Cl)cc1C(=O)Nc1ccc([N+](=O)[O-])cc1Cl
CC50 [5]: 1.54 µM (active)
EC50 [6]: 1.99 µM (active)
EC50 [7]: 2.16 µM (active)
CC50 [2]: 5.03 µM (active)
CC50 [3]: 7.96 µM (active)
CC50 [4]: 3.96 µM (active)
IC50 (cells): 9.46 µM (active)
AC50 (INS1): 1.37 µM (active)

CCOc1cc(NCc2ccccc2)c2ncn(C(C)C)c2c1
IC50 [8]: > 80 µM (inactive)
IC50 [9]: 34.7 µM (active)

Cc1cccc(C(=O)Nc2sc3c(c2C(=O)O)CCCC3)c1
IC50 [8]: > 80 µM (inactive)

Cc1cccc(OCC(=O)NCC(=O)N/N=C/c2ccccc2)c1
IC50 [8]: > 80 µM (inactive)

CC1CCN(CCc2nc3cc(NC(=O)COc4ccc(Cl)cc4)ccc3n2C)CC1
CC50 [2]: 26.1 µM (active)
CC50 [3]: > 20 µM (active)
IC50 (cells): 28.1 µM (active)

N[C@@H](C(=O)N[C@@H]1C(=O)N2C(C(=O)O)=C(Cl)CS[C@H]12)c1ccccc1 [CEFACLOR ANHYDROUS]
EC50 [10]: 0.559 µM (active)
EC50 (Streptokinase A): > 150 µM (not active)
EC50 (Streptococcus): 1.32 µM (active)
IC50 [1]: 7.18 µM (active)
